Results taken from publication PMC10265666, “Lung SPLUNC1 Peptide Derivatives in the Lipid Membrane Headgroup Kill Gram-Negative Planktonic and Biofilm Bacteria” (Biomacromolecules, 2023).
“And” between values parts separate entries of the source, which are not always exact repeats. Identical values can stand only once. No end group written: not given here.

How the values were obtained:
[1] = test system: eukaryotic cells vs bacteria; assay: Therapeutic index (eukaryotic cell kill concentration / bacterial kill concentration); assay type: cell-based; conditions: for concentration at which ≥90% of bacteria are killed: denominator of TI; for concentration at which ≥90% of eukaryotic cells are killed (estimated): numerator of TI
Procedure: But more important than cytotoxicity is the therapeutic index (TI), which is the concentration at which ≥90% of eukaryotic cells are killed divided by the concentration at which ≥90% of bacteria are killed. For A4-153, this TI value is an estimated ≈ 128 μM/16 μM ≈ 8. TI for A4-157 is an estimated 128 μM/24 μM ≈ 5, and the TI for A4-183 is an estimated 64 μM/20 μM ≈ 3.

[2] = Circular dichroism secondary structure in Euk33 ULVs; assay type: physicochemical; conditions: 10 μM peptide, 15 mM PBS pH 7, 37 °C
HBE cells = assay type: cell-based
Procedure: (§1) page 4: Additional toxicity studies at 16 hours incubation with peptides Figure S3. Figure S4. […]

THP-1 cells = assay type: cell-based
Procedure: as §1

[3] = Circular dichroism secondary structure in G(−)IM ULVs; assay type: physicochemical; conditions: 10 μM peptide, 15 mM PBS pH 7, 37 °C
Procedure: Unilamellar vesicles (ULVs) of ∼600 Å diameter were prepared using an Avanti extruder: 200 μL of 20 mg/ml G(−)IM lipid in 15 mM PBS was extruded 21 times through Nucleopore filters of size 500 Å using 0.2 mL Hamilton syringes in the Avanti extruder. The final concentration of G(−)IM lipid in the ULVs was determined gravimetrically to be 15 mg/ml. Concentrated ULVs were added to 3 mL of 10 μM peptide in 15 mM PBS at pH 7 to create lipid/peptide molar ratios between 0:1 and 70:1. The samples remained at room temperature for ∼16 h before the CD measurement. Data were collected in 3 mL quartz cuvettes using a Jasco 1500 CD spectrophotometer at 37 °C in the Center for Nucleic Acids Science and Technology at Carnegie Mellon University. The samples were scanned from 200 to 240 nm 20 times, and the ellipticity (ϵ) results were averaged. Temperature was controlled at 37 °C via a Peltier element and water circulation through the sample compartment. Nitrogen gas was used at a flow rate between 20 and 25 ft^3/h (CFH). The parameters for scanning were: speed 100 nm/min, step size 1.0 nm, response time 1 second, bandwidth 1 nm, and sensitivity of 20 mdeg. OriginPro 2019 (OriginLab, Northampton, MA) was used to carry out a linear least-squares fit of the smoothed ellipticity traces to four secondary structural motifs representing α-helix, β-sheet, β-turn, and random coil.[20] This analysis gives a percentage match of each of the secondary structural motifs to the total sample ellipticity. Data were finally converted to mean residue ellipticity, taking into account the peptide concentration (10 μMolar) and number of amino acids (N), using the equation: MRE = (10^4/N)ϵ deg cm^2/dmol.

[4] = G(−)IM/peptide molar ratio 10:1
[5] = G(−)IM/peptide molar ratio 15:1
[6] = G(−)IM/peptide molar ratio 20:1
[7] = G(−)IM/peptide molar ratio 25:1
[8] = G(−)IM/peptide molar ratio 30:1
[9] = G(−)IM/peptide molar ratio 50:1
[10] = G(−)IM/peptide molar ratio 40:1
[11] = G(−)IM/peptide molar ratio 70:1

Compound: FKKFLKKFKGWLGGLWGK [A4-183]
- concentration at which ≥90% of bacteria are killed [1]: 20 µM
- concentration at which ≥90% of eukaryotic cells are killed (estimated) [1]: ~64 µM
- Random ([2]; Euk33/peptide molar ratio 0:1): 65.9%
- α-helix ([2]; Euk33/peptide molar ratio 0:1): 3.1%
- β-sheet ([2]; Euk33/peptide molar ratio 0:1): 31.0%
- β-turn ([2]; Euk33/peptide molar ratio 0:1): 0%
- Random ([2]; Euk33/peptide molar ratio 5:1): 64.1%
- α-helix ([2]; Euk33/peptide molar ratio 5:1): 8.6%
- β-sheet ([2]; Euk33/peptide molar ratio 5:1): 27.3%
- β-turn ([2]; Euk33/peptide molar ratio 5:1): 0%
- Random ([2]; Euk33/peptide molar ratio 10:1): 67.8%
- α-helix ([2]; Euk33/peptide molar ratio 10:1): 13.0%
- β-sheet ([2]; Euk33/peptide molar ratio 10:1): 19.2%
- β-turn ([2]; Euk33/peptide molar ratio 10:1): 0%
- Random ([2]; Euk33/peptide molar ratio 20:1): 61.2%
- α-helix ([2]; Euk33/peptide molar ratio 20:1): 10.4%
- β-sheet ([2]; Euk33/peptide molar ratio 20:1): 28.4%
- β-turn ([2]; Euk33/peptide molar ratio 20:1): 0%
- Random ([2]; Euk33/peptide molar ratio 30:1): 60.0%
- α-helix ([2]; Euk33/peptide molar ratio 30:1): 13.6% and 14%
- β-sheet ([2]; Euk33/peptide molar ratio 30:1): 26.4%
- β-turn ([2]; Euk33/peptide molar ratio 30:1): 0%
- Random ([2]; Euk33/peptide molar ratio 70:1): 37.4%
- α-helix ([2]; Euk33/peptide molar ratio 70:1): 12.2%
- β-sheet ([2]; Euk33/peptide molar ratio 70:1): 50.4%
- β-turn ([2]; Euk33/peptide molar ratio 70:1): 0%
- cytotoxicity (HBE cells): greatest cytotoxicity at high concentrations
- cytotoxicity (THP-1 cells): less toxic in THP-1 cells than in the other cell types
- Random ([3]; G(−)IM/peptide molar ratio 0:1): 65.9%
- α-helix ([3]; G(−)IM/peptide molar ratio 0:1): 3.1%
- β-sheet ([3]; G(−)IM/peptide molar ratio 0:1): 31.0%
- β-turn ([3]; G(−)IM/peptide molar ratio 0:1): 0%
- Random ([3]; G(−)IM/peptide molar ratio 1:1): 64.1%
- α-helix ([3]; G(−)IM/peptide molar ratio 1:1): 4.7%
- β-sheet ([3]; G(−)IM/peptide molar ratio 1:1): 31.2%
- β-turn ([3]; G(−)IM/peptide molar ratio 1:1): 0%
- Random ([3]; G(−)IM/peptide molar ratio 5:1): 59.2%
- α-helix ([3]; G(−)IM/peptide molar ratio 5:1): 22.6%
- β-sheet ([3]; G(−)IM/peptide molar ratio 5:1): 18.2%
- β-turn ([3]; G(−)IM/peptide molar ratio 5:1): 0%
- Random [3, 4]: 29.1%
- α-helix [3, 4]: 44.4%
- β-sheet [3, 4]: 14.9%
- β-turn [3, 4]: 11.6%
- Random [3, 5]: 0.4%
- α-helix [3, 5]: 63.0%
- β-sheet [3, 5]: 14.1%
- β-turn [3, 5]: 22.5%
- Random [3, 6]: 12.4%
- α-helix [3, 6]: 66.7%
- β-sheet [3, 6]: 8.8%
- β-turn [3, 6]: 12.1%
- Random [3, 7]: 11.7%
- α-helix [3, 7]: 64.9%
- β-sheet [3, 7]: 12.5%
- β-turn [3, 7]: 10.9%
- Random [3, 8]: 13.0%
- α-helix [3, 8]: 69.4%
- β-sheet [3, 8]: 8.7%
- β-turn [3, 8]: 8.9%
- Random [3, 9]: 18.2%
- α-helix [3, 9]: 63.6%
- β-sheet [3, 9]: 9.1%
- β-turn [3, 9]: 9.1%

Compound: CC(C)[C@H](NC(=O)CNC(=O)CNC(=O)[C@@H](NC(=O)[C@H](Cc1c[nH]c2ccccc12)NC(=O)CNC(=O)[C@H](CCCCN)NC(=O)[C@@H](NC(=O)[C@H](CCCCN)NC(=O)[C@H](CCCCN)NC(=O)[C@H](Cc1ccccc1)NC(=O)[C@H](Cc1ccccc1)NC(=O)[C@H](CCCCN)NC(=O)[C@H](CCCCN)NC(=O)[C@@H](N)Cc1ccccc1)C(C)C)C(C)C)C(=O)N[C@@H](Cc1c[nH]c2ccccc12)C(=O)NCC(=O)N[C@@H](CCCCN)C(=O)N[C@H](C(=O)N[C@@H](CCCCN)C(=O)N[C@@H](CO)C(=O)N[C@H](C(=O)N[C@H](C(=O)N[C@@H](CCCCN)C(=O)O)C(C)C)C(C)C)C(C)C (stereo in doubt) [A4-157]
- concentration at which ≥90% of bacteria are killed [1]: 24 µM
- concentration at which ≥90% of eukaryotic cells are killed (estimated) [1]: ≈ 128 μM
- Random ([2]; Euk33/peptide molar ratio 0:1): 61.7%
- α-helix ([2]; Euk33/peptide molar ratio 0:1): 4.57%
- β-sheet ([2]; Euk33/peptide molar ratio 0:1): 33.6%
- β-turn ([2]; Euk33/peptide molar ratio 0:1): 0%
- Random ([2]; Euk33/peptide molar ratio 5:1): 64.2%
- α-helix ([2]; Euk33/peptide molar ratio 5:1): 3.3%
- β-sheet ([2]; Euk33/peptide molar ratio 5:1): 32.5%
- β-turn ([2]; Euk33/peptide molar ratio 5:1): 0%
- Random ([2]; Euk33/peptide molar ratio 10:1): 64.4%
- α-helix ([2]; Euk33/peptide molar ratio 10:1): 7.3%
- β-sheet ([2]; Euk33/peptide molar ratio 10:1): 28.3%
- β-turn ([2]; Euk33/peptide molar ratio 10:1): 0%
- Random ([2]; Euk33/peptide molar ratio 30:1): 59.1%
- α-helix ([2]; Euk33/peptide molar ratio 30:1): 10%
- β-sheet ([2]; Euk33/peptide molar ratio 30:1): 30.9%
- β-turn ([2]; Euk33/peptide molar ratio 30:1): 0%
- Random ([2]; Euk33/peptide molar ratio 70:1): 42.5%
- α-helix ([2]; Euk33/peptide molar ratio 70:1): 7.4%
- β-sheet ([2]; Euk33/peptide molar ratio 70:1): 50.1%
- β-turn ([2]; Euk33/peptide molar ratio 70:1): 0%
- Random ([3]; G(−)IM/peptide molar ratio 0:1): 61.7%
- α-helix ([3]; G(−)IM/peptide molar ratio 0:1): 4.57%
- β-sheet ([3]; G(−)IM/peptide molar ratio 0:1): 33.6%
- β-turn ([3]; G(−)IM/peptide molar ratio 0:1): 0%
- Random ([3]; G(−)IM/peptide molar ratio 1:1): 61.7%
- α-helix ([3]; G(−)IM/peptide molar ratio 1:1): 6.9%
- β-sheet ([3]; G(−)IM/peptide molar ratio 1:1): 31.4%
- β-turn ([3]; G(−)IM/peptide molar ratio 1:1): 0%
- Random ([3]; G(−)IM/peptide molar ratio 5:1): 59.5%
- α-helix ([3]; G(−)IM/peptide molar ratio 5:1): 15.1%
- β-sheet ([3]; G(−)IM/peptide molar ratio 5:1): 25.4%
- β-turn ([3]; G(−)IM/peptide molar ratio 5:1): 0%
- Random [3, 4]: 52.6%
- α-helix [3, 4]: 19.0%
- β-sheet [3, 4]: 28.3%
- β-turn [3, 4]: 0.1%
- Random [3, 5]: 20.1%
- α-helix [3, 5]: 46.0%
- β-sheet [3, 5]: 33.9%
- β-turn [3, 5]: 0%
- Random [3, 6]: 26.5%
- α-helix [3, 6]: 49.3%
- β-sheet [3, 6]: 24.2%
- β-turn [3, 6]: 0%
- Random [3, 7]: 8.3%
- α-helix [3, 7]: 61.0%
- β-sheet [3, 7]: 28.5%
- β-turn [3, 7]: 2.2%
- Random [3, 8]: 8.1%
- α-helix [3, 8]: 62.1% and 62%
- β-sheet [3, 8]: 28.7%
- β-turn [3, 8]: 1.1%
- Random [3, 10]: 0%
- α-helix [3, 10]: 59.5%
- β-sheet [3, 10]: 40.5%
- β-turn [3, 10]: 0%
- Random [3, 9]: 1.0%
- α-helix [3, 9]: 56.4%
- β-sheet [3, 9]: 33.6%
- β-turn [3, 9]: 0%
- Random [3, 11]: 13.2%
- α-helix [3, 11]: 51.2%
- β-sheet [3, 11]: 35.6%
- β-turn [3, 11]: 0%
